Reference: ChEMBL document CHEMBL5608182, “Synthesis and evaluation of neuroactive steroids with novel pharmacophore at C-21 let identify a compound with advantageous PK profile and higher EC50 and Emax as PAM on GABAA receptor” (Eur J Med Chem, 2024)

What was measured:
[1] = Drug concentration in Sprague-Dawley rat brain at 24.4 micromol/kg, IG measured after 6 hrs by LC-MS/MS analysis; format: ADME, tissue-based; conditions: in vivo, po, dose 24.4 µmol/kg
[2] = Metabolic stability in human liver microsomes assessed as compound remaining at 1 uM preincubated for 10 mins followed by NADPH addition by LC-MS analysis; format: ADME, Microsome; conditions: read-out: Stability
[3] = Metabolic stability in Sprague-Dawley rat liver microsomes assessed as compound remaining at 1 uM preincubated for 10 mins followed by NADPH addition by LC-MS analysis; format: ADME, Microsome; conditions: read-out: Stability
[4] = biological target: GABA-A receptor; anion channel; assay: Inhibition of [35S]TBPS binding to GABA-A receptor in Sprague-Dawley rat brain cortical membrane incubated for 90 mins by liquid scintillation spectrometry; format: cell membranes, Cortex
[5] = Drug concentration in Sprague-Dawley rat brain at 24.4 micromol/kg, IG measured after 2 hrs by LC-MS/MS analysis; format: ADME, tissue-based; conditions: in vivo, po, dose 24.4 µmol/kg
[6] = biological target: Gamma-aminobutyric acid receptor subunit alpha-4/beta3/delta (Homo sapiens, UniProt O14764+P28472+P48169); assay: (§1) Positive allosteric modulation of extrasynaptic alpha4beta3delta GABA-A receptor (unknown origin) transfected in CHO cells assessed as potentiation of GABA-induced peak current amplitude at -80 mV holding potential preincubated for 30 secs followed by GABA stimulation for 2 secs by manual patch assay; format: cell-based
Chain of Gamma-aminobutyric acid receptor subunit alpha-4/beta3/delta (P28472 whole entry): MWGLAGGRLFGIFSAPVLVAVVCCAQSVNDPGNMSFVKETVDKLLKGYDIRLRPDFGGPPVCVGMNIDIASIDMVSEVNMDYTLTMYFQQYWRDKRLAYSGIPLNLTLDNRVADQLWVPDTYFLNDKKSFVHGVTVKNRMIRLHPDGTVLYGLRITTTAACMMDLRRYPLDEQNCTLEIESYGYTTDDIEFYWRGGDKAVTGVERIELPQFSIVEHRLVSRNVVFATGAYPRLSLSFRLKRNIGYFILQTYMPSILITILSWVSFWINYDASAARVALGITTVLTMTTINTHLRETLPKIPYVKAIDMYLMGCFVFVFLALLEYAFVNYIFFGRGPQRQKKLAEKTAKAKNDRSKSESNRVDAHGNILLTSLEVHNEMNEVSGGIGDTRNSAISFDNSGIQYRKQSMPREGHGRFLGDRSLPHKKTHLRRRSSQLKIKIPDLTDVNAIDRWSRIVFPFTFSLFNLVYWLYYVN
Chain of Gamma-aminobutyric acid receptor subunit alpha-4/beta3/delta (P48169 whole entry): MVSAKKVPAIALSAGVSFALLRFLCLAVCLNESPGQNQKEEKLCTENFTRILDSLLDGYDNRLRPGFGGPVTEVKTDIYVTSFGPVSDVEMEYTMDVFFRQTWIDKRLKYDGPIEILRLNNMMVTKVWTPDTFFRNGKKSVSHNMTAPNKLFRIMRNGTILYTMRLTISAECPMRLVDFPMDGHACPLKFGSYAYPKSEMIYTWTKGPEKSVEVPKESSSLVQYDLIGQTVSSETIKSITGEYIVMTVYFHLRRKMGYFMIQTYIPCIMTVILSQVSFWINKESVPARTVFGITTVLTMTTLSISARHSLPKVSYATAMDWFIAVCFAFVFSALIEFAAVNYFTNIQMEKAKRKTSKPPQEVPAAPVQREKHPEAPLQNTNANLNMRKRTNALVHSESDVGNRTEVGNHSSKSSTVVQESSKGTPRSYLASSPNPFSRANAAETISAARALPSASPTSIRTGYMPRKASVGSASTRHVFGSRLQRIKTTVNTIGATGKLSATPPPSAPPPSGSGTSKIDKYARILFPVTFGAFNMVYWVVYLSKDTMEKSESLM
Chain of Gamma-aminobutyric acid receptor subunit alpha-4/beta3/delta (O14764 whole entry): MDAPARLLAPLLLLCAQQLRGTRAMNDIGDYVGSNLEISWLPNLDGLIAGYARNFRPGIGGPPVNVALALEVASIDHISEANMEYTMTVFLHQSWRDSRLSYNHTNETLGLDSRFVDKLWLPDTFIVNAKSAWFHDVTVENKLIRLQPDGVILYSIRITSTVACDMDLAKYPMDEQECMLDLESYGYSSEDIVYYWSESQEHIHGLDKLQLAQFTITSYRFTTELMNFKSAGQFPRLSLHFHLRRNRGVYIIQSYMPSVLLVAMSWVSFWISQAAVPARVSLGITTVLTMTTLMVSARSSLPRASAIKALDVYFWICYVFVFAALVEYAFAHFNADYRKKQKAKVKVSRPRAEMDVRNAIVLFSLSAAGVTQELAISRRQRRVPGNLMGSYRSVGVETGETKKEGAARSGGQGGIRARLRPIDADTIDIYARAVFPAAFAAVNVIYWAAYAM

[7] = Metabolic stability in Sprague-Dawley rat liver microsomes assessed as intrinsic clearance at 1 uM preincubated for 10 mins followed by NADPH addition by LC-MS analysis; format: ADME, Microsome; conditions: read-out: CLH
[8] = Drug concentration in Sprague-Dawley rat brain at 24.4 micromol/kg, IG measured after 0.5 hrs by LC-MS/MS analysis; format: ADME, tissue-based; conditions: in vivo, po, dose 24.4 µmol/kg
[9] = Metabolic stability in human liver microsomes assessed as intrinsic clearance at 1 uM preincubated for 10 mins followed by NADPH addition by LC-MS analysis; format: ADME, Microsome; conditions: read-out: CLH
[10] = biological target: T1, GABA-A receptor; alpha-1/beta-2/gamma-2 (Homo sapiens, UniProt P14867+P18507+P47870); assay: (§2) Positive allosteric modulation of synaptic alpha1beta2gamma2 GABA-A receptor (unknown origin) transfected in LTK cells assessed as potentiation of GABA-induced peak current amplitude at -80 mV holding potential preincubated for 30 secs followed by GABA stimulation for 2 secs by Q-patch assay; format: cell-based
T1 sequence (P14867 whole entry): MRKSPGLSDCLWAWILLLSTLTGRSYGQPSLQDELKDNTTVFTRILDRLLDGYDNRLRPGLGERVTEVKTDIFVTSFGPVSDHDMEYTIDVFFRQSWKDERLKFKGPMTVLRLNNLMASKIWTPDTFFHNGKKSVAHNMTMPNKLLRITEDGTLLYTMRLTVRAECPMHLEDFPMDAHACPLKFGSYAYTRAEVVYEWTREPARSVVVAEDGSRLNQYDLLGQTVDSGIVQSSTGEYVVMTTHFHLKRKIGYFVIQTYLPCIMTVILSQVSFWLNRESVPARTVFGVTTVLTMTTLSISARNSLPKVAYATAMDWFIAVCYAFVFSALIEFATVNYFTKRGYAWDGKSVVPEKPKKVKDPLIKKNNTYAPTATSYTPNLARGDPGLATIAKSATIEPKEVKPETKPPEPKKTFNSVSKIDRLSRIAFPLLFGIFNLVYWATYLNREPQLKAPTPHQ
T1 sequence (P47870 whole entry): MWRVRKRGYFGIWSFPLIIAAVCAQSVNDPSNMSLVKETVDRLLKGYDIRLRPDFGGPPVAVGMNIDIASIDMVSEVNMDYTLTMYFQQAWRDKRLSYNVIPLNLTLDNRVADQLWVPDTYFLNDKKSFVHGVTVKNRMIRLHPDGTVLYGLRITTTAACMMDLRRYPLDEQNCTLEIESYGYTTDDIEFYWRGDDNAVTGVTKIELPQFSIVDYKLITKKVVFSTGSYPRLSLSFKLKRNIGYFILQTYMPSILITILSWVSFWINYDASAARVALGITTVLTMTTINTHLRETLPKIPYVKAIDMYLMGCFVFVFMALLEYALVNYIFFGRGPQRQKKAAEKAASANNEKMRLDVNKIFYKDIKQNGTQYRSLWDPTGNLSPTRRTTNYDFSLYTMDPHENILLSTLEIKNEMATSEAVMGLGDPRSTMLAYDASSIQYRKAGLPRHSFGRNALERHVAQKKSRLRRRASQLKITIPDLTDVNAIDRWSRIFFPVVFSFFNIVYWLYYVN
T1 sequence (P18507 whole entry): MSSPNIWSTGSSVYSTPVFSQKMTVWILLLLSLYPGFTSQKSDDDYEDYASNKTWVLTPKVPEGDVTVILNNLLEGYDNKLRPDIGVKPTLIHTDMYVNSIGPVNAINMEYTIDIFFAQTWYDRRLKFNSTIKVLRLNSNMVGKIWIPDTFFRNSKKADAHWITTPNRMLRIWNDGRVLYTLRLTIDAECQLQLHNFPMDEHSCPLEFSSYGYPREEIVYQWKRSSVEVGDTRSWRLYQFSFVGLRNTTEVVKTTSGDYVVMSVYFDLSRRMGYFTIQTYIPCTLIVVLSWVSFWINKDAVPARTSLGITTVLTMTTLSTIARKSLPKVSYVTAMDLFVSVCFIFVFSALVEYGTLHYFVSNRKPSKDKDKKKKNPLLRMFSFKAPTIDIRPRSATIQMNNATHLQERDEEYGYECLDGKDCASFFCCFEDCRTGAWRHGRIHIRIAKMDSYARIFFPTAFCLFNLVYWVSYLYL

[11] = biological target: Gamma-aminobutyric acid receptor subunit alpha-4/beta3/delta (Homo sapiens) (UniProt P28472+P48169+O14764); assay: as §1, with “amplitude by measuring maximal efficacy at 0.01 to 10 uM” for “amplitude”, “assay relative to control” for “assay”; format: cell-based; conditions: filed as positive allosteric modulator, dose 0.01-10 µM, time 32.0 sec
[12] = biological target: GABA-A receptor; alpha-1/beta-2/gamma-2 (Homo sapiens) (UniProt P14867+P47870+P18507); assay: as §2, with “amplitude by measuring maximal efficacy at 0.01 to 10 uM” for “amplitude”, “assay relative to control” for “assay”; format: cell-based; conditions: filed as positive allosteric modulator, dose 0.01-10 µM, time 32.0 sec

C[C@@]1(O)CC[C@H]2[C@H](CC[C@@H]3[C@@H]2CC[C@]2(C)[C@@H](C(=O)Cn4cnn(-c5cccc(F)c5)c4=O)CC[C@@H]32)C1
Ct [1]: 792 nmol/kg
remaining at 1 µM [2]: 89%
remaining at 1 µM [3]: 44.5%
IC50 [4]: 1.2 nM
Ct [5]: 1530 nmol/kg
EC50 [6]: 10 nM
CLint scaled at 1 µM [7]: 44 mL/min/kg
Ct [8]: 1708 nmol/kg
CLint scaled at 1 µM [9]: 3.9 mL/min/kg
EC50 [10]: 56 nM
Emax [11]: 440%
Emax [12]: 566%

C[C@@]1(O)CC[C@H]2[C@H](CC[C@@H]3[C@@H]2CC[C@]2(C)[C@@H](C(=O)Cn4nnn(-c5cccc(F)c5)c4=O)CC[C@@H]32)C1
Ct ([1]; BLD = below limit of detection): Bld
remaining at 1 µM [2]: 70%
remaining at 1 µM [3]: 15.6%
IC50 [4]: 1 nM
Ct ([5]; BLD = below limit of detection): Bld
EC50 [6]: 23 nM
CLint scaled at 1 µM [7]: 105 mL/min/kg
Ct [8]: 948 nmol/kg
CLint scaled at 1 µM [9]: 11 mL/min/kg
EC50 [10]: 37 nM
Emax [11]: 602%
Emax [12]: 1120%

C[C@@]1(O)CC[C@H]2[C@H](CC[C@@H]3[C@@H]2CC[C@]2(C)[C@@H](C(=O)Cn4cnn(-c5ccnc(F)c5)c4=O)CC[C@@H]32)C1
Ct [1]: 764 nmol/kg
remaining at 1 µM [2]: 48.1%
remaining at 1 µM [3]: 32.2%
Ct [5]: 1188 nmol/kg
EC50 [6]: 56 nM
CLint scaled at 1 µM [7]: 69 mL/min/kg
Ct [8]: 708 nmol/kg
CLint scaled at 1 µM [9]: 23 mL/min/kg
EC50 [10]: 109 nM
Emax [11]: 913%
Emax [12]: 775%
